Test results from US5527703A (Merck & Co., Inc., priority 1994, dated 1996).

Experiments:
GluClα = molecular target: T1, GluClα (Caenorhabditis elegans, UniProt G5EBR3); test: Glutamate current after IVMPO4 current activation, GluClα injected oocytes; assay type: cell-based, C. elegans; parameters: the full-length open reading frame of the GluCl cDNA encoding the GluClα (52,550 kDa) and GluClβ (49,900kDa) subunits; expressed in transfected cells; host or cells: Xenopus laevis oocytes injected with in vitro RNA
T1 sequence (G5EBR3 21-461): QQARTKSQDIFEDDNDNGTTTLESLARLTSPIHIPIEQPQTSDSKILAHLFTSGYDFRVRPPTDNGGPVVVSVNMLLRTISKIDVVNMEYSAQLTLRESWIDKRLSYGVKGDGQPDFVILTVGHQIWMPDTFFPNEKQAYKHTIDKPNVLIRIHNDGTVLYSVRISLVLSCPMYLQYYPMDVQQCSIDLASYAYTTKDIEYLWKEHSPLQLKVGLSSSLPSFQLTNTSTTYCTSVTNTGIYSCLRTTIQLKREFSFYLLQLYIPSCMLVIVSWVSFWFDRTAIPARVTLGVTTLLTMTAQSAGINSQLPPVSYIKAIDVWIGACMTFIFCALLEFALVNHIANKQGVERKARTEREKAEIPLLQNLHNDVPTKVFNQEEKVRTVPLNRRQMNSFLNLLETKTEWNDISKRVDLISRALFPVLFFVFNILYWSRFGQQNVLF
Experimental: (§1) Xenopus laevis oocytes were prepared and injected using standard methods previously described and known in the art [Arena, J. P., Liu. K. K., Paress, P. S. & Cully. D. F. Mol. Pharmacol. 40, 368-374 (1991 ); Arena, J. P., Liu, K. K., Paress, P. S., Schaeffer, J. M. & Cully, D. F. Mol. Brain Res. 15, 339-348 (1992)]. Adult female Xenopus laevis were anesthetized with 0.17% tricaine methanesulfonate and the ovaries were surgically removed and placed in a dish consisting of (mM): NaCl 1 82.5, KCl 2. MgCl2 1, CaCl2 1.8, HEPES 5 adjusted to pH 7.5 with NaOH (OR-2). Ovarian lobes were broken open, rinsed several times, and gently shaken in OR-2 containing 0.2% collagenase (Sigma, Type 1A) for 2-5 hours. […]
(§2) Recordings were made at room temperature 2-10 days after injection. […] Data were acquired and analyzed using PCLAMP with a TL-1 interface (Axon Instruments, Foster City, Calif.). Membrane current at a holding potential of -80 mV was recorded. The amplitude of drug-sensitive current was determined by subtracting the holding current at -80 mV from the peak current obtained in the presence of drug. […] Current/voltage relationships (I/V) and reversal potentials (Erev) were determined using a 1-3 sec voltage ramp over the voltage range of -110 to +80 mV. […]

GluClβ = molecular target: T2, GluClβ (Caenorhabditis elegans, UniProt Q17328); test: Modulation of glutamate-sensitive current by IVMPO4, GluClβ injected oocytes; assay type: cell-based, C. elegans
T2 construct: the full-length open reading frame of the GluCl cDNA encoding the GluClα (52,550 kDa) and GluClβ (49,900kDa) subunits; expressed in transfected cells; host or cells: Xenopus laevis oocytes injected with in vitro RNA
T2 sequence (Q17328 23-434): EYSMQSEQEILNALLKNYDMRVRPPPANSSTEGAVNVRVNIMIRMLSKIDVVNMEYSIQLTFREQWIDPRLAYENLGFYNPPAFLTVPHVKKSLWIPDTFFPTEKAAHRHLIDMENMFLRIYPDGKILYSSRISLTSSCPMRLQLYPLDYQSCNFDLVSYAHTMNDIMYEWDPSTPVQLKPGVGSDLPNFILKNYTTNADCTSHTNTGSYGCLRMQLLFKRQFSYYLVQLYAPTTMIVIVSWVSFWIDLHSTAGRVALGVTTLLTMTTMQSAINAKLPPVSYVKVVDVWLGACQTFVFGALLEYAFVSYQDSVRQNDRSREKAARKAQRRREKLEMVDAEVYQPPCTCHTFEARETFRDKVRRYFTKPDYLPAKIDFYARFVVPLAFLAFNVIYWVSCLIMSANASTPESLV
Experimental: as §1, §2

N[C@@H](CCC(=O)O)C(=O)O [glutamate]
lowest glutamate concentrations at which glutamate-sensitive current could be observed (GluClα; following IVMPO4 current activation): 10 µM
increase in current with glutamate (GluClα; prior activation of current with IVMPO4): 20±4%

ivermectin-4-O-phosphate [IVMPO4]
reduction of glutamate-sensitive current (GluClβ; following IVMPO4 1 μM): 88±4%
potentiation of glutamate response (GluClβ; homomeric GluClβ channels): not potentiated
